Measured values reported in patent US20030082525A1, “Five-Helix protein” (priority 1999, published 2003).

Legend:
[1] = tested on: HIV-1 envelope-mediated membrane fusion (CHO cells expressing gp160 and Tat with HELA cells expressing CD4 and coreceptors); conditions: number of syncytia; Chan et al. 1998; read-out: IC50 of C34 in cell-cell fusion assay; cited from earlier work
[2] = tested on: HIV-1 envelope-mediated membrane fusion (CHO cells expressing gp160 and Tat with HELA cells expressing CD4 and coreceptors); assay: Cell-cell fusion assay (syncytia formation); assay type: cell-based; conditions: 200 nM 5-Helix or 6-Helix mixed with C34 at 100, 166, 190 and 210 nM
Description: Assays were carried out to assess the ability of 5-Helix to interact with the C-region of gp41 and inhibit function of the fusion protein. This inhibition of membrane fusion by 5-Helix and 6-Helix was assessed using a cell-based assay. Proteins 5-Helix and 6-Helix are serially diluted in modified DMEM media with 5% FCS and aliquoted into slide chambers. HELA cells (4×10^4) expressing CD4 and coreceptors and containing a β-galactosidase gene under the control of the Tat promoter are added. CHO cells (2×10^4) expressing gp160 (precursor protein to gp120/gp41) and Tat are also added. The 400 μl miniculture is incubated at 37° C. for 8 to 24 hours; fused cells (syncytia) will transcribe and translate β-galactosidase. The cells are fixed in gluteraldehyde and exposed to X-gal/Fe solution for one hour. Syncytia that contain β-galactosidase turn blue-green. […]
All data in FIGS. 3A-3C were generated using His-tagged 5-Helix (see Example 1). […] Following two days of incubation at 37° C., the cells were harvested in […] lysis buffer (Luciferase Assay System, Promega), of which […] was analyzed per manufacturer's protocol. The IC50 values were calculated by fitting the 5-Helix titration data to a Langmuir function [normalized luciferase activity=1/(1+[5−Helix]/IC50)].

[3] = target: His-tagged C-peptide C37-H6 (C-peptide region of gp41) (Human immunodeficiency virus type 1 group M subtype B, UniProt P04578); conditions: 150 μM C34 added to 16 μM 5-Helix and 30 μM C37-H6
Description: The solution was added to 10 ml of Ni-NTA agarose and incubated at room temperature for 10 minutes. After the unbound supernatant was removed, the beads were washed twice with 1 ml TBS and then eluted with 500 mM imidazole. The Ni-bound and unbound samples were run on a 16.5% Tris-Tricine polyacrylamide gel (Biorad) and stained with Gel-code Blue (Pierce).

[4] = target: HIV gp41 (from gp160, strain not stated in the assay text) (HIV-1); assay: cell-based or functional assay

C34: Peptide corresponding to the C-peptide region of HIV gp41 (W628 to L661); chemically synthesized, no His-tag
IC50 [1]: 0.55 ± 0.03 nM | Syncytia formation in mixing (competition) experiments (in words) [2]: blocks all syncytia formation | Competition of untagged C-peptide for 5-Helix/C37-H6 precipitation (in words) [3]: substantially reduces the amount of precipitated 5-Helix

GGHTTWMEWDREINNYTSLIHSLIEESQNQQEKNEQELLGGHHHHHH (modifications not checked) [His-tagged C-peptide C37-H6]
IC50, cell-cell fusion assay [4]: 1 nM
